Assay results reported in paper PMC10488193, “Evaluation of the Chemical Stability, Membrane Permeability and Antiproliferative Activity of Cyclic Diarylheptanoids from European Hornbeam (Carpinus betulus L.)” (International Journal of Molecular Sciences, 2023).
Like-named read-outs stand apart in the source and are kept apart here.

Key:
[1] = design: method as in PMID 28074653; settings: ambient temperature, solvolysis and oxidative degradation; cited from earlier work
[2] = test system: HL-60 (acute promyelocytic leukaemia); assay: In vitro antiproliferative activity, Alamar Blue assay; type: cell-based; settings: Homo sapiens
Description: (§1) For the experiments, the following human cell lines were used: A2058 (melanoma, derived from metastatic site: lymph node), HepG2 (hepatocellular carcinoma), U87 (glioblastoma), HT-29 (colorectal carcinoma) and HL-60 (acute promyelocytic leukaemia). Cell lines were generous gifts from Dr. […] (Department of Experimental Pharmacology, National Institute of Oncology, Budapest, Hungary). […] The cultures were maintained at 37 °C in a humidified atmosphere with 5% CO2. The cells were grown to confluency and then divided into 96-well tissue culture plates (Sarstedt, Nümbrecht, Germany) with an initial cell number of 5000 cells/well. Cells were incubated at 37 °C in a 5% CO2 humidified atmosphere overnight. Before the assay, 50 μL of the supernatant was removed and replaced with a 50 μL serum-free medium (SFM). […] The cells were treated for 24 h with the compounds and negative control cells (no compound control) were treated with SFM only (incubated at 37 °C). […] The percentage of cytostasis was calculated with the following equation: […] Data were evaluated with Excel (version: 365; Microsoft, Redmond, WA, USA) and the curves were defined using Microcal OriginPro (version: 2018; OriginLab, Northampton, MA, USA) software. In each case, two independent experiments were carried out with four parallel measurements and the mean IC50 values together with ±SD were represented. The Excel (version: 365) (Microsoft, Redmond, WA, USA) and Microcal OriginPro (version: 2018) (OriginLab, Northampton, MA, USA) softwares were used for data evaluation.

[3] = test system: HepG2 (hepatocellular carcinoma); assay: as above; type: cell-based; settings: Homo sapiens
Description: as §1

U87 (glioblastoma) = assay: as above; type: cell-based; settings: Homo sapiens, read-out: IC50 ± SD
Description: as §1

[4] = test system: HT-29 (colorectal carcinoma); assay: as above; type: cell-based; settings: Homo sapiens
Description: as §1

[5] = test system: A2058 (melanoma, derived from metastatic site: lymph node); assay: as above; type: cell-based; settings: Homo sapiens
Description: as §1

[6] = cited from earlier work
[7] = HepG2, 24 h treatment, then three days culture, n = 2, read-out: IC50 ± SD
[8] = U87, 24 h treatment, then three days culture, n = 2
[9] = A2058, 24 h treatment, then three days culture, n = 2, read-out: IC50 ± SD

SMILES: COc1cc(/C=C/C(=O)CC(=O)/C=C/c2ccc(O)c(OC)c2)ccc1O [Curcumin, curcumin]
- half-life [1]: less than an hour

SMILES: COc1cccc2c1C(=O)c1c(O)c3c(c(O)c1C2=O)C[C@@](O)(C(C)=O)C[C@@H]3O[C@H]1C[C@H](N)[C@H](O)[C@H](C)O1 [Dau, daunomycin, reference compound]
- IC50 ([2]; HL-60, read-out: IC50 ± SD): 0.02 ± 0.01 µM
- IC50 ([3]; HepG2, read-out: IC50 ± SD): 1.2 ± 0.2 µM
- IC50 (U87 (glioblastoma)): 0.4 ± 0.05 µM
- IC50 ([4]; HT-29, read-out: IC50 ± SD): 0.2 ± 0.01 µM
- IC50 ([5]; A2058, read-out: IC50 ± SD): 0.16 µM

SMILES: COc1cc([C@@H]2c3cc4c(cc3[C@@H](O[C@@H]3O[C@@H]5CO[C@@H](C)O[C@H]5[C@H](O)[C@H]3O)[C@H]3COC(=O)[C@H]23)OCO4)cc(OC)c1O [Etoposide, etoposide, reference compound]
- IC50 [3, 7]: 20.9 ± 1.2 µM
- IC50 (U87 (glioblastoma); [8]): 27 ± 2.3 µM
- IC50 ([4]; HT-29, 24 h treatment, then three days culture, n = 2, read-out: IC50 ± SD): 18.5 ± 1.7 µM
- IC50 [5, 9]: 8.9 ± 0.2 µM

SMILES: O=C(/C=C/CCc1ccc(O)c(O)c1)CCc1ccc(O)c(O)c1 [Hirsutenone, hirsutenone]
- half-life ([6]; aqueous solution, 25 °C): 139 h
- half-life ([6]; aqueous solution, 50 °C): 38.2 h
- half-life ([6]; room temperature): less than seven days

SMILES: O=C(Nc1ccc(C(F)(F)F)cc1)c1cc(Cl)ccc1O [Sal, 5-chloro-2-hydroxy-N-[4-(trifluoromethyl)phenyl]benzamide, reference compound]
- IC50 ([2]; HL-60, 24 h treatment, then three days culture, n = 2, read-out: IC50 ± SD): 4.5 ± 0.7 µM
- IC50 [3, 7]: 5.8 ± 0.7 µM
- IC50 (U87 (glioblastoma); [8]): 0.8 ± 0.3 µM
- IC50 [5, 9]: 6.8 ± 1.2 µM
